Measurements published in ChEMBL document CHEMBL6134901 (J Med Chem, 2025).
pIC50, pKd: −log10 of the molar value. ≈ marks a conversion by molar mass, not a printed value. Calls of active or inactive are those of the source. The rule behind the calls is not given here.

Tests used:
Staphylococcus aureus [1] = assay: Antibacterial activity against Staphylococcus aureus NRS119; type: functional
Clostridioides difficile [2] = assay: Antibacterial activity against Clostridium difficile ATTC43255 assessed as spore germination inhibition incubated for 60 mins by spectrometry; type: functional, organism-based; conditions: ATTC43255, 1 h
Bifidobacterium longum = assay: Antibacterial activity against Bifidobacterium longum HM-846; type: functional
Clostridioides difficile [3] = assay: Antibacterial activity against Clostridium difficile RMA23828; type: functional
Acinetobacter baumannii = assay: Antibacterial activity against Acinetobacter baumannii ATCC 17961; type: functional
[4] = Binding affinity to bacterial prepro-SleC assessed as dissociation constant by MST assay; parameters: species or system Bacteria
[5] = tested on: Staphylococcus epidermidis; assay: Antibacterial activity against Staphylococcus epidermidis ATCC 35547; type: functional
Enterococcus faecalis = assay: Antibacterial activity against Enterococcus faecalis ATCC 29212; type: functional
Bacteria [6] = assay: Binding affinity to bacterial pdaA assessed as dissociation constant by MST assay
Escherichia coli = assay: Antibacterial activity against Escherichia coli ATCC 25922; type: functional
Fusobacterium nucleatum = assay: Antibacterial activity against methicillin/oxacillin/tetracycline-resistant mecA-positive Fusobacterium nucleatum HM-992; type: functional
Lactobacillus gasseri = assay: Antibacterial activity against Lactobacillus gasseri HM-644; type: functional
[7] = Binding affinity to bacterial pro-SleC assessed as dissociation constant by MST assay; parameters: species or system Bacteria
[8] = Cytotoxicity against human HepG2 cells incubated for 24 hrs by XTT assay; type: toxicity, cell-based; conditions: read-out: LD50
Clostridioides difficile [9] = assay: Antibacterial activity against Clostridium difficile RMA26675; type: functional
Staphylococcus aureus [10] = assay: Antibacterial activity against Staphylococcus aureus NRS100; type: functional
[11] = Binding affinity to bacterial GerS assessed as dissociation constant by MST assay; parameters: species or system Bacteria
[12] = Binding affinity to bacterial CspB assessed as dissociation constant by MST assay; parameters: species or system Bacteria
Klebsiella pneumoniae = assay: Antibacterial activity against Klebsiella pneumoniae ATCC 700603; type: functional
[13] = tested on: Limosilactobacillus reuteri; assay: Antibacterial activity against vancomycin-susceptible Lactobacillus reuteri HM-102 clinical isolate; type: functional
Bacteria [14] = assay: Binding affinity to bacterial cwID assessed as dissociation constant by MST assay
Staphylococcus aureus [15] = assay: Antibacterial activity against Staphylococcus aureus ATCC 29213; type: functional
[16] = Binding affinity to bacterial CspA assessed as dissociation constant by MST assay; parameters: species or system Bacteria
Pseudomonas aeruginosa = assay: Antibacterial activity against Pseudomonas aeruginosa ATCC 27853; type: functional
Clostridioides difficile [17] = assay: Antibacterial activity against fidaxomicin-resistant Clostridium difficile RMA23691 clinical isolate; type: functional
[18] = tested on: Staphylococcus haemolyticus; assay: Antibacterial activity against Staphylococcus haemolyticus ATCC 29970; type: functional
Bacillus cereus = assay: Antibacterial activity against Bacillus cereus ATCC 13061; type: functional
Eubacterium sp. = assay: Antibacterial activity against Eubacterium sp. HM-178; type: functional
Bacteroides fragilis = assay: Antibacterial activity against Bacteroides fragilis HM-709; type: functional
Clostridioides difficile [19] = assay: Antibacterial activity against Clostridium difficile ATTC43255 assessed as spore germination inhibition at 45 uM incubated for 60 mins by spectrometry relative to control; type: functional; conditions: ATTC43255, 1 h
Veillonella = assay: Antibacterial activity against Veillonella sp. HM-49; type: functional
Enterococcus faecium [20] = assay: Antibacterial activity against vancomycin-resistant Enterococcus faecium 106 clinical isolate; type: functional
Klebsiella aerogenes = assay: Antibacterial activity against Enterobacter aerogenes ATCC 35029; type: functional
Staphylococcus aureus [21] = assay: Antibacterial activity against vancomycin-resistant Staphylococcus aureus VRS1 clinical isolate; type: functional
Enterococcus faecium [22] = assay: Antibacterial activity against vancomycin-susceptible Enterococcus faecium 119-39A; type: functional
Clostridioides difficile [23] = assay: Antibacterial activity against metronidazole-resistant Clostridium difficile […] clinical isolate; type: functional
[24] = Binding affinity to N-terminal His-tagged full-length Clostridium difficile SleC extracted from Escherichia coli LOBSTR-RIL assessed as dissociation constant by MST assay; parameters: species or system Clostridioides difficile
Clostridioides difficile [25] = assay: Antibacterial activity against Clostridium difficile ATTC43255 incubated for 24 to 48 hrs anaerobically by colony counting method; type: functional; conditions: time 24-48 hrs
[26] = Selectivity index, ratio of LD50 for cytotoxicity against human HepG2 cells to IC50 for antibacterial activity against Clostridium difficile ATTC43255 assessed as spore germination inhibition; type: toxicity, cell-based; conditions: read-out: Ratio LD50/IC50

Oc1ccc(-c2nc(-c3ccc(OC4CCCC4)cc3)no2)cc1
MIC (Staphylococcus aureus [1]): 2 mg/L (≈ 6.2 µM)
pIC50 (Clostridioides difficile [2]): 4.13
MIC (Bifidobacterium longum): 1 mg/L (≈ 3.1 µM)
MIC (Clostridioides difficile [3]): 4 mg/L (≈ 12.4 µM)
MIC (Acinetobacter baumannii): > 128 mg/L
pKd [4]: 5.37
MIC [5]: 2 mg/L (≈ 6.2 µM)
MIC (Enterococcus faecalis): 4 mg/L (≈ 12.4 µM)
Activity (Bacteria [6]): inactive
MIC (Escherichia coli): > 128 mg/L
MIC (Fusobacterium nucleatum): 2 mg/L (≈ 6.2 µM)
MIC (Lactobacillus gasseri): > 128 mg/L
pKd [7]: 4.04
CC50 at 24 h [8]: 22 mg/L (≈ 68.2 µM)
MIC (Clostridioides difficile [9]): 4 mg/L (≈ 12.4 µM)
MIC (Staphylococcus aureus [10]): 2 mg/L (≈ 6.2 µM)
pKd [11]: < 3.70
pKd [12]: 4.12
MIC (Klebsiella pneumoniae): > 128 mg/L
MIC [13]: > 128 mg/L
Activity (Bacteria [14]): inactive
MIC (Staphylococcus aureus [15]): 2 mg/L (≈ 6.2 µM)
pKd [16]: < 3.70
MIC (Pseudomonas aeruginosa): > 128 mg/L
MIC (Clostridioides difficile [17]): 4 mg/L (≈ 12.4 µM)
MIC [18]: 2 mg/L (≈ 6.2 µM)
MIC (Bacillus cereus): 2 mg/L (≈ 6.2 µM)
MIC (Eubacterium sp.): 0.5 mg/L (≈ 1.55 µM)
MIC (Bacteroides fragilis): 2 mg/L (≈ 6.2 µM)
inhibition at 45 µM (Clostridioides difficile [19]): 26%
MIC (Veillonella): > 128 mg/L
MIC (Enterococcus faecium [20]): 2 mg/L (≈ 6.2 µM)
MIC (Klebsiella aerogenes): > 128 mg/L
MIC (Staphylococcus aureus [21]): 2 mg/L (≈ 6.2 µM)
MIC (Enterococcus faecium [22]): 2 mg/L (≈ 6.2 µM)
MIC (Clostridioides difficile [23]): 2 mg/L (≈ 6.2 µM)
pKd [24]: < 3.70

CC(C)Oc1ccc(-c2nc(-c3cccc4c3CC[C@@H]4NCCO)no2)cc1C#N.Cl [OZANIMOD HYDROCHLORIDE]
pIC50 (Clostridioides difficile [2]): 4.41
MIC (Clostridioides difficile [25]): 64 mg/L
CC50 at 24 h [8]: 46 mg/L
inhibition at 45 µM (Clostridioides difficile [19]): 62%
selectivity ratio [26]: 3

CC(C)(C)Oc1ccc(-c2noc(-c3ccc(O)cc3)n2)cc1
inhibition at 45 µM (Clostridioides difficile [19]): < 10%

NCc1ccc(-c2nc(-c3ccnc(-c4ccc(C(F)(F)F)cc4)c3)no2)cc1
inhibition at 45 µM (Clostridioides difficile [19]): 71%

Oc1ccc(-c2nc(-c3ccc(Oc4ccc(C(F)(F)F)cc4)cc3)no2)cc1F
inhibition at 45 µM (Clostridioides difficile [19]): 14%

Oc1ccc(-c2nc(-c3ccc(OC(F)(F)F)cc3)no2)cc1
inhibition at 45 µM (Clostridioides difficile [19]): < 10%
